We go through three molecules from article PMC9173702 (ACS chemical biology, 2022).

For one data set, the system named is mice. Put plainly: In vivo glucose tolerance test (GTT). Also on record: species or system mouse. The following applies: male B6 mice, 16 h fast, 10 nmol/kg IP peptide, then 2 g/kg IP glucose; blood glucose 0-120 min; n = 8; one-way ANOVA, Dunnett's post-test. Here is the method:
Given the promising activation and stability data, we next tested our peptides in vivo using a standard glucose tolerance test (GTT). More specifically, following a 16h fast, mice were injected intraperitoneally (IP) with 10 nmol/kg peptide followed by 2 g/kg of glucose.
In Vivo GTT Test: Male B6 mice at 10−12 weeks of age were housed (8 mice/cage) at a constant RT of 24 °C on a normal day-light cycle and provided a standard diet ad libitum. After 1 week of acclimatization, B6 mice (n = 8 per treatment arm) were fasted for 16 h overnight, and the following morning baseline blood glucose levels were measured (OneTouch), followed by intraperitoneal (IP) injection of vehicle (saline) or the indicated peptide (10 nmol/kg). Thirty minutes later, the mice were treated with a bolus IP injection of glucose (2 g/kg, 20% aqueous solution), followed by serial blood glucose monitoring at 0, 15, 30, 60, and 120 min. Samples for the measurement of blood glucose were obtained from the saphenous vein and collected into heparinized capillary tubes. All animal experiments were approved by and performed in accordance with the guidelines and regulations set forth by the Institutional Animal Care and Use Committee of the Dana-Farber Cancer Institute.

The conditions of data set [1]: clinically marketed as Forteo; cited from earlier work.
Data set [2] in a line: Solubility of stock solution for CD spectroscopy. The following applies: 5 mM stock in 10% acetonitrile. Format: physicochemical.
Data set [3] in a line: Human serum stability assay (RP-HPLC). The following applies: 50% (v/v) human serum, 50 μM peptide, 37 °C, up to 48 h, n = 3.
Protocol: Human Serum Stability Assay: Stock solutions of the peptides (10 mM in DMSO) and reconstituted normal human serum (Thermo Scientific) were pre-equilibrated to 37 °C for 15 minutes in separate tubes. For each replicate, peptides and serum were combined to a final concentration of 50 μM and 50% (v/v) respectively, final volume of 150 μL. The reaction tubes were then incubated at 37 °C with 300 rpm shaking in an Eppendorf ThermoMixer. At each time point, 20 μL of the reaction was taken from each replicate and diluted with four-fold excess of cold acetone. The serum proteins were allowed to precipitate for 15 minutes at -20 °C and were removed by centrifugation at 14,000 g, 4 °C for 10 minutes. The supernatant was transferred to a new tube, diluted with the same volume of water, and were stored at -20 °C until HPLC analysis. Chromatographic separations were performed on a C18 reversed phase analytical column (Higgins Analytical, 150x4.6 mm, 5 μm pore size) using a 30-50% B linear gradient over 30 minutes. Solvent A consisted of 0.1% (v/v) TFA in water, and solvent B contained 90% acetonitrile, 0.1% TFA in water.

Consider `CCCCCCCCCCCCCCCCCCOCCOCCOCCOCCOCCC(=O)N[C@@H](CO)C(=O)NCCCC[C@H](NC(=O)[C@H](C)NC(=O)[C@H](C)NC(=O)[C@H](CCC(N)=O)NC(=O)CNC(=O)[C@H](CCC(=O)O)NC(=O)[C@H](CC(C)C)NC(=O)[C@H](Cc1ccc(O)cc1)NC(=O)[C@H](CO)NC(=O)[C@H](CO)NC(=O)[C@@H](NC(=O)[C@H](CC(=O)O)NC(=O)[C@H](CO)NC(=O)[C@@H](NC(=O)[C@H](Cc1ccccc1)NC(=O)[C@@H](NC(=O)CNC(=O)[C@H](CCC(=O)O)NC(=O)C(C)(C)NC(=O)[C@@H](N)Cc1c[nH]cn1)[C@@H](C)O)[C@@H](C)O)C(C)C)C(=O)N[C@@H](CCC(=O)O)C(=O)N[C@@H](Cc1ccccc1)C(=O)N[C@H](C(=O)N[C@@H](C)C(=O)N[C@@H](Cc1c[nH]c2ccccc12)C(=O)N[C@@H](CC(C)C)C(=O)N[C@H](C(=O)N[C@@H](CCCCN)C(=O)NCC(=O)N[C@@H](CCCNC(=N)N)C(=O)NCC(=O)O)C(C)C)[C@@H](C)CC` [G1], for which the “glycemic control in acute GTT (blood glucose AUC) compared to unmodified GLP-1” value in the data set on mice is recorded as “statistically significant glycemic control”. Turning to “PTH(1–34): clinically marketed by Eli Lilly as Forteo”, the “half-life in the blood” value in data set [1] is listed as ~ 5 minutes. In the case of `CC[C@H](C)[C@H](NC(=O)[C@H](Cc1ccccc1)NC(=O)[C@H](CCC(=O)O)NC(=O)[C@H](CCCCNC(=O)COCCOCCNC(=O)COCCOCCNC(=O)CC[C@H](NC(=O)CCCCCCCCCCCCCCCCC(=O)O)C(=O)O)NC(=O)[C@H](C)NC(=O)[C@H](C)NC(=O)[C@H](CCC(N)=O)NC(=O)CNC(=O)[C@H](CCC(=O)O)NC(=O)[C@H](CC(C)C)NC(=O)[C@H](Cc1ccc(O)cc1)NC(=O)[C@H](CO)NC(=O)[C@H](CO)NC(=O)[C@@H](NC(=O)[C@H](CC(=O)O)NC(=O)[C@H](CO)NC(=O)[C@@H](NC(=O)[C@H](Cc1ccccc1)NC(=O)[C@@H](NC(=O)CNC(=O)[C@H](CCC(=O)O)NC(=O)C(C)(C)NC(=O)[C@@H](N)Cc1cnc[nH]1)[C@@H](C)O)[C@@H](C)O)C(C)C)C(=O)N[C@@H](C)C(=O)N[C@@H](Cc1c[nH]c2ccccc12)C(=O)N[C@@H](CC(C)C)C(=O)N[C@H](C(=O)N[C@@H](CCCNC(=N)N)C(=O)NCC(=O)N[C@@H](CCCNC(=N)N)C(=O)NCC(=O)O)C(C)C` [Semaglutide], the solubility as stock result in data set [2] is reported as “not soluble”. In data set [3], the “stability in human serum (in words)” value is given as “almost no sign of degradation up to 48 h”.
